Source: ChEMBL document CHEMBL3132860 (Medchemcomm, 2013)

Assays:
Estrogen receptor = target: T1, Estrogen receptor (Homo sapiens, UniProt P03372)
T1 sequence (P03372 whole entry): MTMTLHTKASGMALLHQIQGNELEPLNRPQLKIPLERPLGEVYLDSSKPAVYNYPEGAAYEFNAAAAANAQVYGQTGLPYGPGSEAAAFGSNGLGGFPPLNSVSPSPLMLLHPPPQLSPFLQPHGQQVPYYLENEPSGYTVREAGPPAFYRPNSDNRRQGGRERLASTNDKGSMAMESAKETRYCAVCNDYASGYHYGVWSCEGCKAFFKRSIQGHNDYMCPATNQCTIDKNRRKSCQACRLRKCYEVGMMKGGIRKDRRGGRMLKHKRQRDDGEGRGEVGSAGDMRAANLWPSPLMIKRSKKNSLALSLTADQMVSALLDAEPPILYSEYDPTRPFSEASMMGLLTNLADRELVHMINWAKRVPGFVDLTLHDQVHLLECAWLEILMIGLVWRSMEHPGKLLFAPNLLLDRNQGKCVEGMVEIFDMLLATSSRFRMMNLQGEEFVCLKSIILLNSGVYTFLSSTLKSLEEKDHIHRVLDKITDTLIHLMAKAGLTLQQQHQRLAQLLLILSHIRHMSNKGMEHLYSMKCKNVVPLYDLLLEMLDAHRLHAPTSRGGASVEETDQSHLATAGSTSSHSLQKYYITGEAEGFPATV
Description: Agonist activity at ER-alpha (unknown origin) transfected in HEK293T cells after 24 hrs by Steady-Glo luciferase reporter gene assay

Estrogen receptor beta [1] = target: T2, Estrogen receptor beta (Homo sapiens, UniProt Q92731); experiment: Agonist activity at ER-beta (unknown origin) transfected in HEK293T cells after 24 hrs by Steady-Glo luciferase reporter gene assay relative to estradiol; format: cell-based; conditions: HEK-293T
Estrogen receptor beta [2] = target: T2, Estrogen receptor beta
Estrogen receptor beta [3] = target: T2, Estrogen receptor beta; experiment: Agonist activity at human ER-beta transfected in human 293 cells assessed as ALP reporter protein expression after 72 hrs by chemiluminescence assay; format: cell-based

T2 sequence (Q92731 whole entry): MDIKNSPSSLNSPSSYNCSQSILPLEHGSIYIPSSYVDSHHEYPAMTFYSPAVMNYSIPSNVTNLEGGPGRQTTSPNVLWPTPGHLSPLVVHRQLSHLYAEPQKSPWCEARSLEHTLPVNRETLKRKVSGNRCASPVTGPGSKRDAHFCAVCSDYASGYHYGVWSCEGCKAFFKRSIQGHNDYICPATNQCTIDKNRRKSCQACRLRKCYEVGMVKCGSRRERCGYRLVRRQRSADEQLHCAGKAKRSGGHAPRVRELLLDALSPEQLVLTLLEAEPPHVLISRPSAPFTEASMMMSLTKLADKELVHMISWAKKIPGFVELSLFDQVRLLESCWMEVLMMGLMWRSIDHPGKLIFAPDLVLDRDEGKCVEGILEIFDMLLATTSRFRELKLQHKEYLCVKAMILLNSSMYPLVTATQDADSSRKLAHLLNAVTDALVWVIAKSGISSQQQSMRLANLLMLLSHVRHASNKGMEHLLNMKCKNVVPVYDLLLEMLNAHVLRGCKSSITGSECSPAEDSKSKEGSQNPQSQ

## C[C@]12CCC(c3ccc(O)cc3)C[C@H]1CC[C@@H]2O (some centres undefined)
Estrogen receptor
  EC50: 0.0316 µM
Estrogen receptor beta [1]
  Efficacy: 127%
Estrogen receptor beta [2]
  EC50: 0.000398 µM

## C[C@]12CC[C@@H]3c4ccc(O)cc4CC[C@H]3[C@@H]1C[C@@H](O)[C@@H]2O [ESTRIOL]
Estrogen receptor beta [2]
  EC50: 0.000126 µM

## C[C@]12CC[C@@H]3c4ccc(O)cc4CC[C@H]3[C@@H]1C[C@H](O)[C@H]2O
Estrogen receptor beta [3]
  EC50: 0.011 µM

## C[C@]12CC[C@@H](c3ccc(O)cc3)C[C@H]1CCC2=O
Estrogen receptor
  EC50: 7.94 µM
Estrogen receptor beta [1]
  Efficacy: 144%
Estrogen receptor beta [2]
  EC50: 0.126 µM

## C[C@]12CC[C@H](c3ccc(O)cc3)C[C@H]1C[C@H](O)[C@H]2O
Estrogen receptor
  EC50: 10 µM
Estrogen receptor beta [1]
  Efficacy: 108%
Estrogen receptor beta [2]
  EC50: 0.02 µM

## C[C@]12CC[C@H](c3ccc(O)cc3)C[C@H]1CCC2=O
Estrogen receptor
  EC50: > 10 µM
Estrogen receptor beta [1]
  Efficacy: 148%
Estrogen receptor beta [2]
  EC50: 0.251 µM
